Assay results published in patent US11807895B2, “High-throughput drug and genetic assays for cellular transformation” (THE BROAD INSTITUTE, INC., priority 2015, dated 2023).
Entries after “also recorded” stand apart in the source; their conditions may differ. Counter-ions that a name gives are not always drawn.

Experiments:
[1] = system: fibroblasts transformed with TERT, SV40 T-antigen, and H-RAS; test: GILA (growth in low attachment) drug screen, ATP/CellTiter-Glo viability; assay type: cell-based, human; settings: 633 kinase inhibitors and FDA-approved drugs screened at 30 μM or 10 μM, 5 days
Text: To identify drugs specifically inhibiting the oncogenic state of fibroblasts transformed with TERT, SV40 T-antigen, and H-RAS (Hahn W C, et al. (1999) Creation of human tumour cells with defined genetic elements. Nature 400:464-468.), GILA was used as a primary screen and growth on standard high-attachment plates as a counterscreen.
Transformed fibroblast cells were maintained as subconfluent monolayers, trypsinized, and seeded in 96-well plates (for analytical assays, FIG. 14) or in 384-well white plates (for screens, FIG. 3). The cell concentration was optimized to 1000 cells/well in 100 μl medium (for 96-well plate) or 50 cells/well in 30 μl growth medium (for 384-well plate). Two types of plates were used in the screens: high-attachment conditions (Corning, 3704) and Ultra Low-attachment (Sumitomo, PrimeSurface384U). Cells were seeded automatically using the liquid rapid dispenser Metrix WellMate (Thermo). Two small molecule libraries (NIH Clinical Collection 1-2013 and Kinase Inhibitor Focused Library) were transferred to each microplate, at 100 nl drug per well, to final concentration of 30 μM or 10 μM, respectively, by using the robotic transfer system (Seiko Epson) and pin array (V&P). Controls were added by multichannel pipette. After 5 days of incubation at 37° C. in 5% CO2, the cells were assayed for ATP content. […] The secondary screen was conducted similarly, except that an HP D300 Digital Liquid Dispenser and T8 dispenseheads (HP) was used to add 4 different concentrations of small molecules to the cells.
Crosstalk corrected values from EnVision reader were used to normalize the luminescence from each wells.

IL-6 = settings: Hong et al. 2012: LPS-stimulated mouse macrophages and TG-injected mice; cited from earlier work
[2] = system: ascites-derived ovarian cancer cells from patients; test: Ex-vivo GILA drug sensitivity of patient-derived cancer cells; assay type: cell-based, human; settings: for inhibitory activity in ex-vivo GILA assay: 5 patients who failed multiple lines of treatment, 5000 cells per well, 72 hours; for dose dependence of viability in ex-vivo GILA: ovary cancer patient derived cells
Procedure: Patient-derived ovarian cancer cells are sensitive to FDA-approved drugs identified in the GILA-based screen. […] Immediately after procurement, ascites samples were processed and 5000 cells per well were flow-sorted into 96-well microtiter plates with low or high-attachment surfaces containing 100 μl of growth medium per well.
Cell viability was measured with the CellTiter-Glo (Promega) luminescent assay, using the EnVision Plate Reader (PerkinElmer) or the SpectraMax M5 Multi-Mode Microplate Reader (Molecular Devices). For high-attachment growth, tissue culture-treated 96-well clear plates (#3997, Corning) were used, while for the GILA assay low attachment surface plates (#3474, Corning) of 96-well clear plates were used for 3 to 5 days. Later the cells were moved to 96-Well Solid White Polystyrene Microplate (#3362, 14 Corning) for reading luminescence signal. To avoid bleeding of luminescence between the wells, every other well left empty in the solid white microplate. 30 μl of CTG reagent was used for 384-well microplates, and 100 μl for 96-well microplates. The cells were moderately shaken for 5 minutes in the reagent, followed by incubation for 20 minutes to ensure cell lysis. No background signal was detected from wells containing only culture medium.
Under an institutional review board approved protocol, freshly discarded ascites from patients with advanced stage ovarian cancers was collected from 5 individuals. Ascites fluid was immediately transferred on ice for further processing. Samples were spun down and red blood cells were removed with hypotonic lysis using ACK lysing buffer (Life Technologies). Cells were filtered through a 40 μm mesh and washed in PBS with 2% FBS and subjected to staining for FACS.
Cells were prepared per standard protocols, stained with Calcein-AM, CD45-FITC, EPCAM-PE and CD24-PE/Cy7 and incubated for 20 minutes on ice. Cells were washed with […] prior to flow-sorting. After doublet discrimination and compensation for spectral overlap, single, viable cells, negative for CD45 and positive for EPCAM and CD24 were flow-sorted into wells (96 well plates) prepared with growth 15 medium. Samples were sorted on a BD FACSAria SORP and analyzed using BD FACSDiva Software (BD Biosciences).

[3] = listed as Azelastine hydrochloride, hydrochloride

SMILES	hit in GILA-based drug screen (inhibits growth in low attachment, less pronounced effect on high attachment) [1]	also measured
CC(=O)Oc1ccccc1C(=O)Nc1ncc([N+](=O)[O-])s1 [nitazoxanide]	top hits; also recorded: identified and validated in the drug screen	IL-6 suppression (IL-6): suppresses IL-6; inhibitory activity in ex-vivo GILA assay [2]: demonstrated inhibitory activity
COc1ccc(-c2cc(=O)c3c(OC)c(OC)c(OC)c(OC)c3o2)cc1OC [nobiletin]	identified and validated in the drug screen	
Cc1cccc(-c2[nH]ncc2-c2ccc3ncccc3n2)n1 [RepSox]	identified and validated in the drug screen	
CC(C)CC(N(C)C)C1(c2ccc(Cl)cc2)CCC1 (stereo not drawn) [sibutramine]	top hits	
C=C1/C(=C\C=C2/CCC[C@]3(C)[C@@H]([C@H](C)/C=C/[C@@H](O)C4CC4)CC[C@@H]23)C[C@@H](O)C[C@@H]1O [calcipotriol]	top hits	
CN1CCCC(n2nc(Cc3ccc(Cl)cc3)c3ccccc3c2=O)CC1 (stereo not drawn) [azelastine hydrochloride]	identified and validated in the drug screen	inhibitory activity in ex-vivo GILA assay [2, 3]: highly effective at inhibiting growth; inhibitory activity in ex-vivo GILA assay ([2]; listed as azelastine, hydrochloride): demonstrated inhibitory activity; dose dependence of viability in ex-vivo GILA ([2]; hydrochloride): dose dependent response; dose dependence of viability in ex-vivo GILA [2, 3]: concentration-dependent viability
